# Laboratory results as given in PMC12661400, “Oral bioavailable ITRI-148 degrades androgen receptor variants and overcomes antiandrogen resistance in advanced prostate cancer” (Neoplasia (New York, N.Y.), 2025).
# Tests used:
# [1] = tested on: C4-2B/MDVR; experiment: MTT cell viability, 7 days; assay type: cell-based; settings: 168 h
# Description: (§1) Cells were seeded in 96-well plates and treated with drugs the next day. After 7 days, viability was assessed using MTT assay.
# (§2) (C) Western blot analysis of AR and AR-V7 in C4-2B and C4-2B/MDVR cells after 48-hour ITRI-148 treatment. […] DEGs were determined relative to DMSO or pLKO.1 vector control. […] RPL13A was used for normalization. […] AR, AR-V7, and PSA expression in the drug-treated cells were detected across treatment timepoints.
# [2] = tested on: CWR22Rv1; experiment: MTT cell viability, 7 days; assay type: cell-based; settings: 168 h
# Description: as §1, §2
# [3] = tested on: LNCaP95; experiment: MTT cell viability, 7 days; assay type: cell-based; settings: LNCaP-95, 168 h
# Description: as §1, §2
# [4] = tested on: LNCaP; experiment: MTT cell viability, 7 days; assay type: cell-based; settings: Homo sapiens, 168 h
# Description: as §1, §2
# [5] = tested on: PC3; experiment: MTT cell viability, 7 days; assay type: cell-based
# Description: as §1, §2
# [6] = tested on: PNT2; experiment: MTT cell viability, 7 days; assay type: cell-based
# Description: as §1, §2
# [7] = tested on: VCaP; experiment: MTT cell viability, 7 days; assay type: cell-based; settings: Homo sapiens, 168 h
# Description: as §1, §2
# [8] = tested on: CWR22Rv1 xenografts; experiment: Hormone-intact CWR22Rv1 xenograft study; assay type: in vivo
# Excerpt: Immunodifficient male CB-17 SCID mice (CB17/Icr-Prkdc^scid/IcrIcoCrlBltw) and NOD SCID mice (NOD.CB17-Prkdc^scid/NCrCrlBltw) mice at four to six weeks of age were purchased from BioLASCO Taiwan Co., Ilan, Taiwan. All mice were housed in conventional cages in the AAALAC Full Accreditation (2011) in Industrial Technology Research Institute and were allowed to acclimatize and recover from shipping-related stress for one week prior to the study. The health of the mice was monitored by daily observations. Animals were kept in rooms at temperature of 22–26°C with 40–70 % humidity, positive pressure, 60 % air recirculation, ventilation rate 15–20 changes per hour, and a controlled light-dark cycle (12–12 hours). The order and location of each animal cage was randomly assigned to minimize potential confounders. CWR22Rv1 cells (5 × 10^6) were suspended in 100 μL of PBS with 30 % Matrigel and subcutaneously implanted into the right flank of male CB-17 SCID mice. Tumors were measured with calipers, and tumor size was calculated as follows: tumor volume (V) = (L × S^2)/2 (L, longest diameter, mm; S, shortest diameter, mm). When mean tumor volume reached 150–200 mm^3, the mice were randomly assigned into indicated groups (n = 5-6/ group) and the day of initiating treatments was assigned as day 0. VCaP cells (5 × 10⁶) suspended in 50 % Matrigel were subcutaneously implanted into male NOD SCID mice. […] Tumor size and body weight of the animals were monitored and recorded two to three times per week. […] The drug antitumor efficacy was presented as percentages of TGI of each tested animal, calculated as follows: [1 − (final tumor volume ^treated group – initial tumor volume ^treated group) / (final tumor volume ^vehicle group – initial tumor volume ^vehicle group)] × 100. Body weight of each mouse was also compared to that on the first day of treatment (day 0) and expressed as a percentage of day 0 value. […] Statistical analysis of the differences between two drug and vehicle treated groups was determined by two-tailed Student’s t-test.
# [9] = Repeated-dose toxicity study: absolute organ weights; assay type: in vivo, Sprague-Dawley rats; settings: rats
# Description: Repeated-dose toxicity and toxicokinetic studies
# Repeated-dose oral toxicity study and toxicokinetic (TK) profiling was conducted in Sprague-Dawley rats. ITRI-148 was administered once daily using oral gavage at doses of 100, 300, 600, and 1000 mg/kg/day for 7 consecutive days, followed by a 7-day recovery period. Each dose group comprised 3 animals designated for toxicokinetic (TK) analysis and 6 animals for dose-range finding (DRF) evaluation. Clinical observations, body weights, and food consumption were monitored daily throughout the dosing and recovery periods. […]
# All samples were analyzed in duplicate. Hematology and serum clinical chemistry analyses were performed on Day 7 (end of dosing) and Day 14 (end of recovery). At necropsy, organ weights (including heart, liver, kidney, spleen, thymus, and adrenal glands) were recorded, and gross pathological changes were examined. All procedures were conducted in compliance with institutional animal care and use guidelines. […]
# Targeting androgen receptor and the variants by an orally bioavailable
# Proteolysis Targeting Chimeras compound in castration resistant prostate cancer
# [10] = PO 100 mg/kg/day 7 days, Day 14 (recovery)
# [11] = PO 300 mg/kg/day 7 days, Day 14 (recovery)
# [12] = PO 600 mg/kg/day 7 days, Day 14 (recovery)
# [13] = PO 1000 mg/kg/day 7 days, Day 7
# [14] = PO 1000 mg/kg/day 7 days, Day 14 (recovery)
smiles,measurement,setting,value
O=C1CCC(N2C(=O)c3cccc(NCC(=O)N4CCC(N5CCC(C#Cc6ccc(C7CCN(C8=Nn9c(nnc9C(F)(F)F)CC8)CC7)cc6)CC5)CC4)c3C2=O)C(=O)N1 (stereo not drawn) [ITRI-148],IC50,[1],1600 nM
same,IC50,[2],2150 nM
same,IC50,[3],1960 nM
same,IC50,[4],170 nM
same,sensitivity of cell viability,[5]; AR-negative CRPC cells (PC3),insensitive
same,IC50,"[5]; Homo sapiens, PC-3, PC3, MTT",> 10 µM
same,IC50,"[6]; Homo sapiens, PNT2, MTT",> 10 µM
same,sensitivity of cell viability,[6]; normal prostate epithelial cells (PNT2),insensitive
same,IC50,[7],890 nM
same,toxicity reflected by weight-loss of the animals,[8]; PO 30-60 mg/kg BID,No toxicity reflected by weight-loss of the animals was observed
same,tumor growth inhibition (TGI),[8]; oral 30 mg/kg BID,38.08%
same,tumor growth inhibition (TGI),[8]; oral 60 mg/kg BID,69.39%
same,Absolute organ weight: Heart,"[9]; PO 100 mg/kg/day 7 days, Day 7",1.417 ± 0.443 g
same,Absolute organ weight: Kidney,"[9]; PO 100 mg/kg/day 7 days, Day 7",2.656 ± 0.136 g
same,Absolute organ weight: Liver,"[9]; PO 100 mg/kg/day 7 days, Day 7",13.915 ± 1.565 g
same,Absolute organ weight: Spleen,"[9]; PO 100 mg/kg/day 7 days, Day 7",0.536 ± 0.112 g
same,Absolute organ weight: Thymus,"[9]; PO 100 mg/kg/day 7 days, Day 7",0.419 ± 0.079 g
same,Absolute organ weight: adrenal glands,"[9]; PO 100 mg/kg/day 7 days, Day 7",0.056 ± 0.012 g
same,Absolute organ weight: Heart,[9]; [10],1.139 ± 0.079 g
same,Absolute organ weight: Kidney,[9]; [10],2.65 ± 0.021 g
same,Absolute organ weight: Liver,[9]; [10],11.06 ± 0.639 g
same,Absolute organ weight: Spleen,[9]; [10],0.538 ± 0.05 g
same,Absolute organ weight: Thymus,[9]; [10],0.319 ± 0.039 g
same,Absolute organ weight: adrenal glands,[9]; [10],0.084 ± 0.059 g
same,Absolute organ weight: Heart,"[9]; PO 300 mg/kg/day 7 days, Day 7",1.369 ± 0.173 g
same,Absolute organ weight: Kidney,"[9]; PO 300 mg/kg/day 7 days, Day 7",2.966 ± 0.426 g
same,Absolute organ weight: Liver,"[9]; PO 300 mg/kg/day 7 days, Day 7",13.69 ± 1.088 g
same,Absolute organ weight: Spleen,"[9]; PO 300 mg/kg/day 7 days, Day 7",0.558 ± 0.035 g
same,Absolute organ weight: Thymus,"[9]; PO 300 mg/kg/day 7 days, Day 7",0.377 ± 0.079 g
same,Absolute organ weight: adrenal glands,"[9]; PO 300 mg/kg/day 7 days, Day 7",0.058 ± 0.022 g
same,Absolute organ weight: Heart,[9]; [11],1.252 ± 0.229 g
same,Absolute organ weight: Kidney,[9]; [11],2.748 ± 0.366 g
same,Absolute organ weight: Liver,[9]; [11],12.08 ± 0.721 g
same,Absolute organ weight: Spleen,[9]; [11],0.629 ± 0.088 g
same,Absolute organ weight: Thymus,[9]; [11],0.314 ± 0.042 g
same,Absolute organ weight: adrenal glands,[9]; [11],0.06 ± 0.016 g
same,Absolute organ weight: Heart,"[9]; PO 600 mg/kg/day 7 days, Day 7",1.269 ± 0.209 g
same,Absolute organ weight: Kidney,"[9]; PO 600 mg/kg/day 7 days, Day 7",2.661 ± 0.129 g
same,Absolute organ weight: Liver,"[9]; PO 600 mg/kg/day 7 days, Day 7",13.396 ± 2.201 g
same,Absolute organ weight: Spleen,"[9]; PO 600 mg/kg/day 7 days, Day 7",0.509 ± 0.093 g
same,Absolute organ weight: Thymus,"[9]; PO 600 mg/kg/day 7 days, Day 7",0.319 ± 0.054 g
same,Absolute organ weight: adrenal glands,"[9]; PO 600 mg/kg/day 7 days, Day 7",0.058 ± 0.001 g
same,Absolute organ weight: Heart,[9]; [12],1.242 ± 0.08 g
same,Absolute organ weight: Kidney,[9]; [12],2.759 ± 0.179 g
same,Absolute organ weight: Liver,[9]; [12],12.382 ± 0.877 g
same,Absolute organ weight: Spleen,[9]; [12],0.594 ± 0.066 g
same,Absolute organ weight: Thymus,[9]; [12],0.394 ± 0.041 g
same,Absolute organ weight: adrenal glands,[9]; [12],0.07 ± 0.027 g
same,Absolute organ weight: Heart,[9]; [13],1.259 ± 0.118 g
same,Absolute organ weight: Kidney,[9]; [13],3.022 ± 0.127 g
same,Absolute organ weight: Liver,[9]; [13],13.349 ± 1.256 g
same,Absolute organ weight: Spleen,[9]; [13],0.388 ± 0.035 g
same,Absolute organ weight: Thymus,[9]; [13],0.121 ± 0.021 g
same,Absolute organ weight: adrenal glands,[9]; [13],0.068 ± 0.012 g
same,Absolute organ weight: Heart,[9]; [14],1.306 ± 0.066 g
same,Absolute organ weight: Kidney,[9]; [14],2.763 ± 0.229 g
same,Absolute organ weight: Liver,[9]; [14],11.072 ± 0.774 g
same,Absolute organ weight: Spleen,[9]; [14],0.506 ± 0.023 g
same,Absolute organ weight: Thymus,[9]; [14],0.355 ± 0.119 g
same,Absolute organ weight: adrenal glands,[9]; [14],0.062 ± 0.009 g
